Measurements: US10072017B2, “Compounds and methods for the treatment of cystic fibrosis” (Flatley Discovery Lab, LLC, priority 2015, dated 2018)

Target: T1, CFTR (Homo sapiens, UniProt P13569, DEL508-508)
T1 construct: Primary CF airway epithelial cells were obtained from the UNC Cystic Fibrosis Tissue Procurement and Cell Culture Core; host or cells: primary CF airway epithelial cells
Assay: Equivalent current assay in Primary CF airway epithelial cells (NAUC)
Format: cell-based
Settings: 24 h, normalized to VX809 (3 μM) positive control; for Nauc @ 3 μM: 3 μM test compound; for Nauc @ 10 μM: 10 μM test compound
Procedure: Primary CF airway epithelial cells were obtained from the UNC Cystic Fibrosis Tissue Procurement and Cell Culture Core. The cells are grown at 37° C. in a Heracell 150i incubator using growth media (BEGM, Fischer). Cells were then transferred to differentiation media (ALI, UNC) for a minimum of 4 weeks on coated Costar snapwells. Two days before the Ussing assay the mucus on the apical surface of the cells was aspirated after incubating with 200 μL of differentiation Media for at least thirty (30) minutes. One day before the Ussing assay test compounds were added to the basolateral surface of the cells at various test concentrations dissolved in DMSO. Duplicate wells were prepared giving a n=3 or n=4 protocol.
Cells were treated for 24 hours with various combinations and concentrations of the test articles, reference standard (3 μM VX809, positive control). Compounds stock solutions were prepared in DMSO and diluted 1/1000 into ALI media to their final assay concentration. Cells were treated with combination solutions (2 mL of each dilution) and incubated at 37° C. for 24 h.
For the equivalent current assay, cells on four Transwell (24-well) plates were treated. Each Transwell plate was filled with 200 μl of HBS on the apical surface and 2 ml on the basolateral surface. Plates were placed horizontally in a heated mount at 37° C., and equilibrated for several minutes. Resting current was measured for 15 min and then blocked by the apical addition of 5 μM benzamil. After 20 min, 10 μM forskolin and 1 μM VX770 were added to both the apical and basolateral side to stimulate CFTR. An increase in chloride current is seen as an upward deflection of the trace. After another 30 min, CFTR-172 (a CFTR inhibitor, 20 μM) and/or bumetanide (20 uM) was added to block CFTR mediated chloride current.
The raw data, current vs. time for the Ussing chamber (sampling interval: 10 s) and voltage vs. time and resistance vs. time for the equivalent current assay (sampling interval: 5 minutes) were transferred to Excel (Microsoft Office Professional, version 14.0.7106.5003) for analysis. CFTR specific current was measured as the average amplitude of the increase in current elicited upon addition forskolin and ending upon addition of the CFTR channel specific blocker CFTR-172. This average is equivalent to the sum of the average forskolin activated and the average VX770-potentiated currents. The average current measured in vehicle (0.1% DMSO) treated cells, Iv, was subtracted from the current for the test article, ITA, or from the corrector reference standard VX809 (3 uM ISTD. For replicate measurements, the average vehicle subtracted response for the test article, was normalized to the average vehicle subtracted inhibitor response of the reference corrector VX809 (3 μM). INSC=(ITA−IV)(ave)/(ISTD−IV)(ave) (Equation 1)
A second endpoint, for the equivalent current assay, evaluated was NAUC, the normalized area under the curve (AUC) measuring the response after addition of forskolin and VX770 to the time point right before the addition of the CFTR inhibitor. The AUC is effectively the average response multiplied by the duration of the response. The AUC of the test article, AUCTA was then corrected by subtracting the average vehicle response, AUCV,ave over the same time range, and normalized as for the inhibitor-sensitive current to the difference of the corrector reference standard VX809 (3 μM VX809r,ave and the vehicle response: NAUCTA=[AUCTA−AUCV,ave]/[AUCVx809r,ave−AUCV,ave] (Equation 2).
The normalized value for DMSO is 0.0 and for VX-809 alone is 1.0. Combinations of compounds with VX-809 that give normalized values greater than 1.0 show activity in the combination assay. A value of 2 means the test compound doubles the effect to VX-809 alone.
Experiments were run with a minimum of n=4 replicates per concentration. […]

T1 sequence (P13569 with tags, fused parts or gaps DEL508-508): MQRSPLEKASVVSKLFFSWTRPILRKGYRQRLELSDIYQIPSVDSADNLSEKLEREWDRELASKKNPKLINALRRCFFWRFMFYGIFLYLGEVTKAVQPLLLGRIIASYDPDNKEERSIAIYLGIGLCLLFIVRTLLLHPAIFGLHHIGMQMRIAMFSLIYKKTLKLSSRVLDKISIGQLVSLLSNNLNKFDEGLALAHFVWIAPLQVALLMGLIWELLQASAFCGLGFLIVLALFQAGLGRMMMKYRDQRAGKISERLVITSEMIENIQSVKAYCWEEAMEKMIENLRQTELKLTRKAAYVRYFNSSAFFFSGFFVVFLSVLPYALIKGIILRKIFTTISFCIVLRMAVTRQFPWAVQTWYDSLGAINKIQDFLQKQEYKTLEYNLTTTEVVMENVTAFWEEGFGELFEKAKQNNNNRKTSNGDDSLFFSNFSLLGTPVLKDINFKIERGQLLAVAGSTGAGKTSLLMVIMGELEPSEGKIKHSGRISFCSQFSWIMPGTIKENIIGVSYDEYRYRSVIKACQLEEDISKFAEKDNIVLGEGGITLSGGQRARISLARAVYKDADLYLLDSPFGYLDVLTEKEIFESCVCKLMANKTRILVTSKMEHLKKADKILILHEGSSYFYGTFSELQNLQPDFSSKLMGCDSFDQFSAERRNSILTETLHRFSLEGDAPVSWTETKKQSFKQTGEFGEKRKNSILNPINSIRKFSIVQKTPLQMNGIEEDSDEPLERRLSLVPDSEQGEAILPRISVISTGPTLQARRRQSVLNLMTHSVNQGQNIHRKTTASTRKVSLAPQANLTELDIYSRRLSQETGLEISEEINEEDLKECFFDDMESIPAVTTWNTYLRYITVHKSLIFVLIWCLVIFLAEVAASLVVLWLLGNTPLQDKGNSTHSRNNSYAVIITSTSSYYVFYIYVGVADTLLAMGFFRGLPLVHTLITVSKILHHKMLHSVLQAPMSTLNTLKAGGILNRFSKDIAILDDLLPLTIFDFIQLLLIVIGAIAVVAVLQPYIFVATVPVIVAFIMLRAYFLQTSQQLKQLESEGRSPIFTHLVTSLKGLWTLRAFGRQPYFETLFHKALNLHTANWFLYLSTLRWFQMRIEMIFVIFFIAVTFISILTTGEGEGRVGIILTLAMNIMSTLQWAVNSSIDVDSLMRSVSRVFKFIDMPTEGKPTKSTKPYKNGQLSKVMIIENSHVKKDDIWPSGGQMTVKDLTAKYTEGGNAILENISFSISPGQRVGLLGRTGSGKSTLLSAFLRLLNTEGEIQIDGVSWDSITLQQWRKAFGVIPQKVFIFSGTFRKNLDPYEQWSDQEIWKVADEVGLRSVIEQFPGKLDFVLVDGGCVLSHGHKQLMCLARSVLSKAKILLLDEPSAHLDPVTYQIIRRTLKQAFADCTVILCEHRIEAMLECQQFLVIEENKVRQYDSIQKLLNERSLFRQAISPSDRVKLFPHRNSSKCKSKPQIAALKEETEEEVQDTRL

Row | Compound | Nauc @ 3 μM | Nauc @ 10 μM
1 | O=C1C2C(Cc3ccccc3O)NC3(C(=O)Nc4c(Cl)cc(Cl)cc43)C2C(=O)N1c1cc(Cl)cc(Cl)c1 (stereo not drawn) [Example 188] | + (NAUC “+” refers to an observed NAUC <140% of positive control) | +++ (NAUC “+++” refers to an observed NAUC >170% of positive control)
2 | O=C1C2C3CC(=C(F)F)CN3C3(C(=O)Nc4c(Cl)cc(Cl)cc43)C2C(=O)N1c1cc(Cl)cc(Cl)c1 (single isomer, unassigned) [Example 116] | +++ (NAUC “+++” refers to an observed NAUC >170% of positive control) | +++ (NAUC “+++” refers to an observed NAUC >170% of positive control)
3 | O=C1C2C3CC(C(F)F)CN3C3(C(=O)Nc4c(Cl)cc(Cl)cc43)C2C(=O)N1c1cccc(C(F)(F)F)c1 (stereo not drawn) [Example 134] | + (NAUC “+” refers to an observed NAUC <140% of positive control) | ++ (NAUC “++” refers to an observed NAUC 170-140% of positive control)
4 | Cc1ccc(CC2NC3(C(=O)Nc4c(Cl)cc(Cl)cc43)C3C(=O)N(c4cc(Cl)cc(Cl)c4)C(=O)C23)cc1 (stereo not drawn) [Example 195] | + (NAUC “+” refers to an observed NAUC <140% of positive control) | ++ (NAUC “++” refers to an observed NAUC 170-140% of positive control)
5 | O=C1C2C3CCCN3C3(C(=O)Nc4c(Cl)cccc43)C2C(=O)N1c1cc(Cl)cc(Cl)c1 (stereo not drawn) [Example 75] | ++ (NAUC “++” refers to an observed NAUC 170-140% of positive control) | + (NAUC “+” refers to an observed NAUC <140% of positive control)
6 | O=C1C2C(Cc3ccccn3)NC3(C(=O)Nc4c(Cl)cc(Cl)cc43)C2C(=O)N1c1cc(Cl)cc(Cl)c1 (stereo not drawn) [Example 203] | ++ (NAUC “++” refers to an observed NAUC 170-140% of positive control) | ++ (NAUC “++” refers to an observed NAUC 170-140% of positive control)
7 | C[C@]1(O)CC2C3C(=O)N(c4cc(Cl)cc(Cl)c4)C(=O)C3C3(C(=O)Nc4c(Cl)cc(Cl)cc43)N2C1 (stereo partly drawn) [Example 171] | +++ (NAUC “+++” refers to an observed NAUC >170% of positive control) | +++ (NAUC “+++” refers to an observed NAUC >170% of positive control)
8 | COc1cc(Cl)cc(N2C(=O)C3C4C[C@H](Cl)CN4C4(C(=O)Nc5c(Cl)cc(Cl)cc54)C3C2=O)c1 (stereo partly drawn) [Example 76] | +++ (NAUC “+++” refers to an observed NAUC >170% of positive control) | +++ (NAUC “+++” refers to an observed NAUC >170% of positive control)
9 | O=C1C2C3CCCN3C3(C(=O)Nc4ccc(C(F)(F)F)cc43)C2C(=O)N1c1cc(Cl)cc(Cl)c1 (stereo not drawn) [Example 30] | ++ (NAUC “++” refers to an observed NAUC 170-140% of positive control) | +++ (NAUC “+++” refers to an observed NAUC >170% of positive control)
10 | Cc1cc(CC2NC3(C(=O)Nc4c(Cl)cc(Cl)cc43)C3C(=O)N(c4cc(Cl)cc(Cl)c4)C(=O)C23)no1 (stereo not drawn) [Example 237] | ++ (NAUC “++” refers to an observed NAUC 170-140% of positive control) | + (NAUC “+” refers to an observed NAUC <140% of positive control)
11 | [2H]C([2H])([2H])C1(C([2H])([2H])[2H])CC2C3C(=O)N(c4cc(Cl)cc(Cl)c4)C(=O)C3C3(C(=O)Nc4c(Cl)cc(Cl)cc43)N2C1 (stereo not drawn) [Example 185] | +++ (NAUC “+++” refers to an observed NAUC >170% of positive control) | +++ (NAUC “+++” refers to an observed NAUC >170% of positive control)
12 | O=C1C2C(C(=O)N1c1cc(Cl)cc(Cl)c1)C1(NC23CCC3)C(=O)Nc2c(Cl)cc(Cl)cc21 (stereo not drawn) [Example 211] | ++ (NAUC “++” refers to an observed NAUC 170-140% of positive control) | ++ (NAUC “++” refers to an observed NAUC 170-140% of positive control)
13 | CC(=O)Oc1c(Cl)cc(Cl)cc1N1C(=O)C2C3CCCN3C3(C(=O)Nc4c(Cl)cc(Cl)cc43)C2C1=O (stereo not drawn) [Example 90] | + (NAUC “+” refers to an observed NAUC <140% of positive control) | +++ (NAUC “+++” refers to an observed NAUC >170% of positive control)
14 | COc1c(Cl)cc(N2C(=O)C3C4CC5(CC5)CN4C4(C(=O)Nc5c(Cl)cc(Cl)cc54)C3C2=O)cc1Cl (single isomer, unassigned) [Example 197] | +++ (NAUC “+++” refers to an observed NAUC >170% of positive control) | +++ (NAUC “+++” refers to an observed NAUC >170% of positive control)
15 | O=C(O)CC1NC2(C(=O)Nc3c(Cl)cc(Cl)cc32)C2C(=O)N(c3cc(Cl)cc(Cl)c3)C(=O)C12 (stereo not drawn) [Example 157] | +++ (NAUC “+++” refers to an observed NAUC >170% of positive control) | + (NAUC “+” refers to an observed NAUC <140% of positive control)
16 | O=C1C2C(CO)NC3(C(=O)Nc4c(Cl)cc(Cl)cc43)C2C(=O)N1c1cc(Cl)cc(Cl)c1 (stereo not drawn) [Example 165] | ++ (NAUC “++” refers to an observed NAUC 170-140% of positive control) | ++ (NAUC “++” refers to an observed NAUC 170-140% of positive control)
17 | O=C1C2C3CC(C(F)F)CN3C3(C(=O)Nc4c(Cl)cc(Cl)cc43)C2C(=O)N1c1cc(Cl)cc(Cl)c1 (stereo not drawn) [Example 99] | +++ (NAUC “+++” refers to an observed NAUC >170% of positive control) | +++ (NAUC “+++” refers to an observed NAUC >170% of positive control)
18 | COc1c(Cl)cc(N2C(=O)C3C4CCCN4C4(C(=O)Nc5c(Cl)cc(Cl)cc54)C3C2=O)cc1Cl (stereo not drawn) [Example 77] | +++ (NAUC “+++” refers to an observed NAUC >170% of positive control) | +++ (NAUC “+++” refers to an observed NAUC >170% of positive control)
19 | O=C1C2C3CC(C(F)F)CN3C3(C(=O)Nc4c(Cl)cc(Cl)cc43)C2C(=O)N1c1cc(F)cc(Cl)c1 (stereo not drawn) [Example 133] | ++ (NAUC “++” refers to an observed NAUC 170-140% of positive control) | ++ (NAUC “++” refers to an observed NAUC 170-140% of positive control)
20 | O=C1C2C3CCCN3C3(C(=O)Nc4c(Cl)cc(Cl)cc43)C2C(=O)N1c1cc(Cl)cc(Br)c1 (stereo not drawn) [Example 35] | + (NAUC “+” refers to an observed NAUC <140% of positive control) | +++ (NAUC “+++” refers to an observed NAUC >170% of positive control)
21 | O=C1C2C3CC4(CC4)CN3C3(C(=O)Nc4c(Cl)cc(Cl)cc43)C2C(=O)N1c1cc(Cl)cc(Cl)n1 (single isomer, unassigned) [Example 218] | +++ (NAUC “+++” refers to an observed NAUC >170% of positive control) | +++ (NAUC “+++” refers to an observed NAUC >170% of positive control)
22 | O=C1C2C3C[C@H](Cl)CN3C3(C(=O)Nc4c(Cl)cc(Cl)cc43)C2C(=O)N1c1cc(Cl)cc(Cl)c1 (stereo partly drawn) [Example 57] | +++ (NAUC “+++” refers to an observed NAUC >170% of positive control) | +++ (NAUC “+++” refers to an observed NAUC >170% of positive control)
23 | O=C1C2CN(C3CCCC3)C3(C(=O)Nc4c(Cl)cc(Cl)cc43)C2C(=O)N1c1cc(Cl)cc(Cl)c1 (stereo not drawn) [Example 32] | ++ (NAUC “++” refers to an observed NAUC 170-140% of positive control) | +++ (NAUC “+++” refers to an observed NAUC >170% of positive control)
24 | CC(O)C1NC2(C(=O)Nc3c(Cl)cc(Cl)cc32)C2C(=O)N(c3cc(Cl)cc(Cl)c3)C(=O)C12 (stereo not drawn) [Example 166] | ++ (NAUC “++” refers to an observed NAUC 170-140% of positive control) | ++ (NAUC “++” refers to an observed NAUC 170-140% of positive control)
